Measurements as given in patent publication US20020022652A1, “Methylnogarol compositions and uses thereof” (priority 2000, published 2002).
Where two headings read alike, the source gives them in different places.

Test system: murine fibrosarcomas (RIF−1 cells)
Format: in vivo
Conditions: for Mean TVQT (± SE): RIF-1 tumors in C3H mice, paclitaxel 10 mg/kg, camptothecin 6 mg/kg, combinations with second agent 30 min after menogaril; for Mean TVQT (± SE) / Mean TVQT ± S.E.: menogaril 50 mg/kg; for Delay: median TVQT of treated group minus median of control; for Delay / TVQT/CTVQT / Median (TVQT): same doses; for Mean TVQT ± S.E.: RIF-1 tumors in female C3H mice, single i.p. injection, cisplatin 4 mg/kg, combination with cisplatin 30 min after menogaril, 4 mice per group
Procedure: Transplantable experimental murine fibrosarcomas (2×10^5 RIF−1 cells) were grown intradermally in the flanks of 3 month old female C3H mice (Charles River, Holister, Calif.). When the tumors reached a volume of approximately 100 mm^3, the mice were randomly assigned to each experimental group (4 mice per group).
The chemopotentiator, menogaril, was obtained from NCI and was made to the appropriate concentration in DMSO. Cisplatin (David Bull Laboratories- Mulgrave, Australia, lot. 5201844x) was made to the appropriate concentration in water for injection. The compositions were injected systemically (i.e., intraperitoneally, i.p.), in a volume of 100 microliters. For the treatment of group 3, the chemopotentiator, menogaril, was injected 30 minutes prior to the injection of cisplatin. After treatment, the growth of the tumors was monitored three times per week by caliper measurements of three perpendicular diameters of the tumor and calculation of tumor volume from the formula: […]
The tumors were followed until they reached a size of four times their day zero treatment volume (TVQT), or up to 30 days after treatment, whichever came first. The data is expressed as the “tumor volume quadrupling time” (TVQT) mean and as the “delay.” Mean TVQT is the mean days required for individual tumors to grow to four times the tumor volume at the initial treatment day. The “delay” is the median of days required for a tumor to grow to four times the mean size of the treated group, minus the median of days required to grow to four times the mean size of the control group. The data is also expressed as the ratio of the tumor volume quadrupling time of the treated tumor over the untreated control group (TVQT/CTVQT). Increasing values of this ratio indicate increased antitumor response.
The ability of menogaril to enhance the effect of camptothecin or paclitaxel was also studied, using the same methods described in Example 1. […] For each injection, 100 microliters was injected.

[1] = Example 2, Table 4, ratio of treated group over untreated control, IP
[2] = Example 1, Table 3, ratio of TVQT of treated group over untreated control, i.p.

| SMILES | Mean TVQT (± SE) (Example 2, Table 4, IP) [days] | Delay (Example 2, Table 4, IP) | TVQT/CTVQT [1] | Median (TVQT) (Example 2, Table 4, IP) [days] | Mean TVQT ± S.E. (Example 1, Table 3) [days] | Delay (Example 1, Table 3, i.p.) [days] | TVQT/CTVQT [2] | Median (TVQT) (Example 1, Table 3, i.p.) [days] |
| --- | --- | --- | --- | --- | --- | --- | --- | --- |
| CC(=O)O[C@H]1C(=O)[C@@]2(C)[C@H]([C@H](OC(=O)c3ccccc3)[C@]3(O)C[C@H](OC(=O)[C@H](O)[C@@H](NC(=O)c4ccccc4)c4ccccc4)C(C)=C1C3(C)C)[C@]1(OC(C)=O)CO[C@@H]1C[C@@H]2O [Paclitaxel, paclitaxel] | 9.0 ± 0.4 | 0.36 | 1.0 | 8.7 | – | – | – | – |
| N.N.[Cl][Pt][Cl] [Cisplatin, cis-diamminedichloroplatinum II] | – | – | – | – | 8.4 ± 0.3 | 2.10 | 1.3 | 8.1 |
| CC[C@@]1(O)C(=O)OCc2c1cc1n(c2=O)Cc2cc3ccccc3nc2-1 [Camptothecin, camptothecin] | 9.9 ± 0.5 | 1.44 | 1.1 | 9.8 | – | – | – | – |
| CO[C@@H]1C[C@](C)(O)Cc2cc3c(c(O)c21)C(=O)c1c(O)cc2c(c1C3=O)O[C@@H]1O[C@@]2(C)[C@H](O)[C@@H](N(C)C)[C@@H]1O [Menogaril, 2,6-Epoxy-2H-naphthaceno[1,2-b]oxocin-9,16-dione, 4-(dimethylamino)-3,4,5,6,11,12,13,14-octahydro-3,5,8,10,13-pentahydroxy-11-methoxy-6,13-dimethyl-,(2alpha,3beta,4alpha,5beta,6alpha, 11 alpha, 13alpha)-, (P)-] | 10.2 ± 0.8 | 1.84 | 1.2 | 10.2 | 9.1 ± 0.5 | 3.31 | 1.4 | 9.4 |
